Measured values taken from patent US4595696A, “Polyene compounds useful in the treatment of allergic responses” (USV Pharmaceutical Corp., priority 1985, dated 1986).
Where two headings read alike, the source gives them in different places.

Tests used:
[1] = molecular target: T1, 5-Lipoxygenase (Rattus norvegicus, UniProt P12527); test: Inhibition of 5-Lipoxygenase, rat PMN (Protocol 1); format: cell-based; details: rat neutrophils, 3 minutes at 30° C., 5-HETE formation; for Inhibition of 5-Lipoxygenase, Lox, Rat PMN (given as %): concentration not given; for IC50: [14C]-arachidonic acid and Calcium Ionophore A23187, read-out: Lox, Rat PMN (I50)
T1 construct: endogenous in cells; host or cells: rat neutrophils (PMN)
T1 sequence (P12527 1-673): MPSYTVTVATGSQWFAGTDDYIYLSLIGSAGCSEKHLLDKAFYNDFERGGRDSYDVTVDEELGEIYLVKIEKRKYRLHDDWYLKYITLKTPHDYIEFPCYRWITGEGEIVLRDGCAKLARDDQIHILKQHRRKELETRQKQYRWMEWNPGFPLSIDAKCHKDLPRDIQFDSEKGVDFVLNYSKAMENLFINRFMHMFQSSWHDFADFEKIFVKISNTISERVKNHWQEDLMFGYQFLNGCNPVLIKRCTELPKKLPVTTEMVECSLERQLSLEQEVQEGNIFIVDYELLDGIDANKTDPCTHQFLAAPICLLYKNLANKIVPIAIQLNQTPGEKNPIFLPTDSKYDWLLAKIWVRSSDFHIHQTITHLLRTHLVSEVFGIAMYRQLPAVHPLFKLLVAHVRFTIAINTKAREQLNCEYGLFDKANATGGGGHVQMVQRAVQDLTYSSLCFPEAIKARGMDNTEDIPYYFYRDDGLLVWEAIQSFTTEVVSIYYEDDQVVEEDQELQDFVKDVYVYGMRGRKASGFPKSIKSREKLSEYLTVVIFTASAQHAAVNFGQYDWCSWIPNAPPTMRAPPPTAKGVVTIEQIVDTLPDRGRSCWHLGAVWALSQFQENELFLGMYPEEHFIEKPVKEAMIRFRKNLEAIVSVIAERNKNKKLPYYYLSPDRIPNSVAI
Protocol: Protocol 1 describes an assay to detect inhibitors of the lipoxygenase pathway. Such inhibitors are believed to be capable of modulating the biosynthesis of the leukotrienes, a property believed to be useful in treating asthma and inflammatory disease states. A suspension of rat neutrophils in buffer is incubated for 3 minutes at 30° C. with [^14 C]-arachidonic acid (AA) and Calcium Ionophore A23187. Citric acid (2M) is used to quench the reaction. […] The organic layer is washed with dilute acid and an aliquot is transferred to glass tubes and dried. […] The 5-HETE spots are visulaized with iodine, cut out and placed in scintillation vials for counting. After adjusting for the extraction efficiency, the amount (pmole) of [^14 C]-5-HETE in each of the tubes is quantitated. The net pmoles of 5-HETE are obtained by subtracting the pmoles of 5-HETE in the tubes containing buffer alone (blank) from the pmoles of 5-HETE in the tubes containing buffer and cells (control).

[2] = molecular target: T2, Phospholipase A2 (PLA2) (Rattus norvegicus, UniProt P14423); test: In Vitro Assay for Inhibitors of Phospholipase A2 (PLA2), rat platelets (Protocol II); format: biochemical
T2 construct: The PLA2 employed in this screen is obtained by aggregation of purified rat platelets; from tissue; host or cells: purified rat platelets, enzyme obtained by aggregation
T2 sequence (P14423 22-146): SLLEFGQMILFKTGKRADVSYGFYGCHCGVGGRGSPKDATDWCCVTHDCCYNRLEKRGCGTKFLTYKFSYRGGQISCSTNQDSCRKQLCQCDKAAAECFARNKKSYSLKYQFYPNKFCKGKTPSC
Description: An assay has been developed to test the ability of the invented compounds on the activity of the phospholipases. The following protocol describes a means for testing the inhibitory effect of these compounds on Phospholipase A2 (PLA2).
In Vitro Assay for Inhibitors of Phospholipase A2 Assayed at pH 7.0 (PLA2)
The PLA2 employed in this screen is obtained by aggregation of purified rat platelets. In the enzyme assay phosphatidylcholine having ^14 C-labeled palmitate residues at R1 and R2 is employed as substrate. PLA2 acts by cleaving the R2 fatty acid ester bond yielding free fatty acid and lysophosphatidylcholine as follows: [drawing 15]
Following completion of the reaction, the assay medium is acidified and extracted with hexane, which takes up unreacted substrate and free fatty acid product. The hexane extract is passed over a short silica column which retains 99% of the phosphatidylcholine. The ^14 C-labeled palmitic acid is not retained (90% recovery in eluate) and is collected directly in scintillation counting vials. The released palmitic acid is conveniently quantitated by liquid scintillation spectrometry.
The compounds were tested at 100 μM in a buffer containing 0.3 mM unlabeled phosphatidylcholine (PC), 20-30,000 cpm of ^14 C(CPC), […], 1 mM CaCl2 and 50 mM tris-HCl adjusted to pH 7.2 with 1N NaOH. […] The temperature of the buffer was maintained at a temperature of 37° C. The reaction was initiated by addition of the enzyme and it was terminated 30 minutes later by the addition of […] of 1N HCl.
Following acidification, the samples were extracted with 2 ml of 2-propanol and 2 ml of hexane, vortexed and allowed to stand until the phases separated. Free fatty acids (FFA) and some unreacted substrate were taken up in the isopropanol-saturated hexane. The hexane phase of the extraction mixture was transferred to a short silica gell column which retained reacted PC but not the FFA. The column effluent was collected directly in scintillation vials. The columns were washed once with an additional 2 ml of hexane. The radio labeled FFA were quantitated by liquid scintillation spectrometry.

[3] = rat platelets PLA2, phosphatidylcholine substrate, pH 7.2, 37° C., 30 minutes, read-out: PHOSPHOLIPASE A2 INHIBITION Activity (I50)

Question: How did the “Inhibition of 5-Lipoxygenase, Lox, Rat PMN (given as %)” value [1] turn out when `CCNC(=O)/C=C(C)/C=C/C=C(C)/C=C/c1c(C)cc(OC)c(C)c1C` [Ro 11 - 1430, reference compound] was run?
Answer: -11 ± 19%

Question: `CC(=O)Nc1ccc(OC(=O)/C=C/C=C(C)/C=C/C=C(C)/C=C/C2=C(C)CCCC2(C)C)cc1` [Example 4, 4-Acetamidophenyl 5,9-dimethyl-11-(2,6,6-trimethyl-1-cyclohexen-1-yl)-2,4,6,8,10-undecapentaenoate] was tested. Which IC50 [2] did it give?
Answer: 17 µM

Question: For `CC(=O)Nc1ccc(SC(=O)/C=C(C)/C=C/C=C(C)/C=C/C2=C(C)CCCC2(C)C)cc1` [Example 3, Retinoic Acid 4-Acetamidophenyl Thioester], which IC50 [2, 3] is on record?
Answer: 34 µM

Question: What about the IC50 [1] of the same molecule?
Answer: 2.3 µM

Question: What does the source list for `CC(=O)Nc1cccc(OC(=O)/C=C(C)/C=C/C=C(C)/C=C/C2=C(C)CCCC2(C)C)c1` [Example 2, 3-Acetamidophenyl Retinoate]?
Answer: IC50 [2, 3]: 48 µM; IC50 [1]: 55 µM

Question: Which IC50 [2, 3] does the source give for `CC(=O)Nc1ccc(OC(=O)/C=C(C)/C=C/C=C(C)/C=C/C2=C(C)CCCC2(C)C)cc1` [Example 1, 4-Acetamidophenyl Retinoate] here?
Answer: 56 µM

Question: And the IC50 [1]?
Answer: 56 µM

Question: How did the “Inhibition of 5-Lipoxygenase, Lox, Rat PMN (given as %)” value [1] turn out when `CCOC(=O)/C=C(C)/C=C/C=C(C)/C=C/c1c(C)cc(OC)c(C)c1C` [Ro 10 - 9359, reference compound] was run?
Answer: 10 ± 17%

Question: For `CC1=C(/C=C/C(C)=C/C=C/C(C)=C/C(=O)O)C(C)(C)CCC1` [all trans retinoic acid, reference compound], which inhibition at 100 µM ([2]; at 100 μM, rat platelets PLA2, pH 7.2, 37° C., 30 minutes) is on record?
Answer: 32%

Question: And the IC50 [1]?
Answer: 90 µM
